As a reminder, the amount remaining is the share of the starting amount still present when the sample was taken. A low value points to a greater loss.

Data set [1] can be described thus: pH and heat stability of antibiotic PS-5 in aqueous solution. The format is physicochemical. The note with it: phosphate buffer, yellowish brown powder of Example 5. As for the experimental part: Phosphate buffer solutions of the indicated pH's were made by adjusting M/15 dipotassium phosphate to a desired pH with 5 N NaOH or 5 N phosphoric acid. To 1 milliliter of the antibiotic PS-5 solution, 1 milliliter of the phosphate buffer was added and, if necessary, the pH value was readjusted to the initial value. The antibiotic PS-5 solutions with varied pH's were kept at 60° C. for 30 minutes in a water bath, cooled in running water and neutralized to pH 7.0 with a small amount of 5 N NaOH or 5 N phosphoric acid. The control tube containing the antibiotic PS-5 solution of pH 7.0 was put in an ice bath for 30 minutes. The remaining antimicrobial activity was determined as described above, utilizing Comamonas terrigena B-996 as the assay microorganism. The results shown in the following table were calculated as percent of the control: […]

The subject of data set [2] is Proteus vulgaris P-5. Kind of data set: Filter paper strip synergism test. The conditions noted are these: Proteus vulgaris P-5 (beta-lactamase producer); crossed filter paper strips, 18 hours at 35° C. It counts as cell-based. Here is the method:
On an assay plate of nutrient agar seeded by a beta-lactam-resistant strain of Proteus vulgaris P-5 (beta-lactamase producer), two filter paper strips containing penicillin G or cephaloridine and two strips containing antibiotic PS-5 were applied to form a square where two strips of the […] antibiotic were contacted at one corner. The antimicrobial activity was read after incubation for 18 hours at 35° C. When suitable concentrations of penicillin G or cephaloridine and antibiotic PS-5 were chosen, the inhibition area was observed only at the corners where both antibiotic PS-5 and penicillin G or cephaloridine were present, but not at the corners where antibiotic PS-5, penicillin G or cephaloridine was solely present. […] That is, when two kinds of compounds were combined at concentrations that were low enough not to give an inhibition zone with a component alone, the large inhibition thus appearing with the combination was due to synergism.

Data set [3] deals with Serratia marcescens. Kind of data set: Potentiation disc assay with cephaloridine (Table 10). The conditions noted are these: for Inhibition zone With CER: 50 μg/ml cephaloridine in agar. It counts as cell-based. Here is the method:
(§1) (A) Ten milliliters of molten nutrient agar containing 50 μg/ml of penicillin G or cephaloridine, 0.8% of Kyokuto Nutrient Broth Powder and 1.0% of Difco Bacto-Agar (pH 7.0) were seeded with the beta-lactam-resistant, beta-lactamase-producing microorganisms indicated in Tables 9 and 10, and poured in a 9-cm Petri dish to provide the bio-assay agar plate. On this assay plate, 8-mm pulp discs containing 25 μl each of antibiotic PS-5 solutions at the indicated concentrations were placed and incubated at 35° C. for 18 hours before reading the inhibition zones. The control assay plate was similarly prepared without penicillin G nor cephaloridine. As reference antibiotics, penicillin G, ampicillin, oxacillin and cefazolin were disc-assayed under the same conditions.

Data set [4] concerns Citrobacter freundii E-9. Described as above. It counts as cell-based. The conditions noted are these: for Inhibition zone With CER: 50 μg/ml cephaloridine in agar. As for the experimental part: as §1
For data set [5], the system named is Proteus vulgaris P-5. Described as above. It counts as cell-based. The note with it: Proteus vulgaris P-5; for Inhibition zone With CER: 50 μg/ml cephaloridine in agar. Here is the method: as §1
For data set [6], the system named is Enterobacter sp. E-18. The data set is described as above. The conditions noted are these: for Inhibition zone With CER: 50 μg/ml cephaloridine in agar. The format is cell-based. Here is the method: as §1
Data set [7] in a line: Solubility of trityl ester of antibiotic PS-5. The format is physicochemical. Here is the method:
The solubility of the tritylation product of the antibiotic PS-5 was determined by dissolving under […] 5 mg each of the tritylation product of the antibiotic PS-5 in 0.1 ml each of the test solvents at 20° C.

Data set [8] has as its system Comamonas terrigena B-996. Kind of data set: Disc bio-assay of antimicrobial activity, cephaloridine equivalent units. The note with it: Comamonas-cephaloridine units per mg of the final purified preparation. It counts as cell-based. As for the experimental part:
The overnight culture of Comamonas terrigena B-996 on a nutrient agar slant was suspended in nutrient broth so as to give an optical cell density of 0.040 at 610 nm.
The seed suspension was added in a 1% amount to a molten agar medium containing 0.8% Kyokuto Nutrient Broth Powder (Kyokuto Pharmaceutical Industries Co.) and 1.0% Bacto-Agar (Difco Laboratories). Seven milliliters of the seeded molten agar medium were distributed in a Petri dish (9 cm in diameter) and solidified). This is defined as a Comamonas assay plate.
An 8 mm pulp disc was usually soaked with a sample solution to be assayed, left on a clean sheet of filter paper for a sufficient time to remove the excess solution and then transferred onto an assay plate. After incubation at 35° C. for 20 hours, the diameter of the observed inhibition zone was measured and compared with standard solutions of cephaloridine. The antimicrobial activity of the antibiotic PS-5 and related compounds is expressed as cephaloridine equivalent units/ml.
As well known to those skilled in the art, the assay standard curve varies to some extent, depending on the species of the test microorganisms. […]

Setting [9] is: 5 mg in 0.1 ml solvent at 20° C.

For `CCC1C(=O)N2C(C(=O)O)=C(SCCNC(C)=O)CC12` (single isomer, unassigned) [Antibiotic PS-5], the share remaining at 0.5 h is 0% in data set [1] (pH 3, pH 3.0, 60° C. for 30 minutes, percent of control); 0% in data set [1] (pH 4, pH 4.0, 60° C. for 30 minutes); 9% in data set [1] (pH 5, pH 5.0, 60° C. for 30 minutes); 79% in data set [1] (pH 6, pH 6.0, 60° C. for 30 minutes); 76.5% in data set [1] (pH 7, pH 7.0, 60° C. for 30 minutes); 88.5% in data set [1] (pH 8, pH 8.0, 60° C. for 30 minutes). The molecule also returned a share remaining at 0.5 h in data set [1] (pH 9, pH 9.0, 60° C. for 30 minutes) of 82%. Besides, the “Synergism with penicillin G or cephaloridine” value in data set [2] was “synergism between the antibiotic PS-5 and penicillin G or cephaloridine”. The zone of inhibition at 79.5 µg/mL turned out to be 14.8 mm in data set [3] (18 h, PS-5 79.5 μg/ml, read-out: Inhibition zone Without CER); 16 mm in data set [4] (E9, 18 h, PS-5 79.5 μg/ml, read-out: Inhibition zone Without CER); 12.5 mm in data set [5] (P5, 18 h, PS-5 79.5 μg/ml, read-out: Inhibition zone Without CER); 15.1 mm in data set [6] (SP.E18, 18 h, PS-5 79.5 μg/ml, read-out: Inhibition zone Without CER). For the same molecule, the zone of inhibition at 100 µg/mL was 16.8 mm in data set [3] (18 h, PS-5 100 μg/ml, read-out: Inhibition zone Without CER); 17.4 mm in data set [4] (E9, 18 h, PS-5 100 μg/ml, read-out: Inhibition zone Without CER); 13.7 mm in data set [5] (P5, 18 h, PS-5 100 μg/ml, read-out: Inhibition zone Without CER); 16.1 mm in data set [6] (SP.E18, 18 h, PS-5 100 μg/ml, read-out: Inhibition zone Without CER). Further, the zone of inhibition at 159 µg/mL in data set [3] (18 h, PS-5 159 μg/ml, read-out: Inhibition zone Without CER) is 17 mm; in data set [4] (E9, 18 h, PS-5 159 μg/ml, read-out: Inhibition zone Without CER), 17.4 mm; in data set [5] (P5, 18 h, PS-5 159 μg/ml, read-out: Inhibition zone Without CER), 15.2 mm; in data set [6] (SP.E18, 18 h, PS-5 159 μg/ml, read-out: Inhibition zone Without CER), 18.2 mm. The zone of inhibition at 318 µg/mL in data set [3] (18 h, PS-5 318 μg/ml, read-out: Inhibition zone Without CER) was 21 mm; in data set [4] (E9, 18 h, PS-5 318 μg/ml, read-out: Inhibition zone Without CER), 22.5 mm; in data set [5] (P5, 18 h, PS-5 318 μg/ml, read-out: Inhibition zone Without CER) it was 18.5 mm; in data set [6] (SP.E18, 18 h, PS-5 318 μg/ml, read-out: Inhibition zone Without CER), 21 mm. Further, the “Inhibition zone With CER” value worked out at 22.3 mm in data set [3] (PS-5 79.5 μg/ml); 23.3 mm in data set [3] (PS-5 100 μg/ml); 24.8 mm in data set [3] (PS-5 159 μg/ml); 26.1 mm in data set [3] (PS-5 318 μg/ml); 19.4 mm in data set [4] (PS-5 79.5 μg/ml); 21.6 mm in data set [4] (PS-5 100 μg/ml). Moreover, the “Inhibition zone With CER” value in data set [4] (PS-5 159 μg/ml) worked out at 22.3 mm; in data set [4] (PS-5 318 μg/ml), 24.6 mm; in data set [5] (PS-5 79.5 μg/ml), 21.8 mm; in data set [5] (PS-5 100 μg/ml), 22.0 mm; in data set [5] (PS-5 159 μg/ml), 24.0 mm; in data set [5] (PS-5 318 μg/ml), 25.2 mm. The “Inhibition zone With CER” value was 17.6 mm in data set [6] (PS-5 79.5 μg/ml), 18.0 mm in data set [6] (PS-5 100 μg/ml), 19.4 mm in data set [6] (PS-5 159 μg/ml) and 21.9 mm in data set [6] (PS-5 318 μg/ml).

Take `CCC1C(=O)N2C(C(=O)OC(c3ccccc3)(c3ccccc3)c3ccccc3)=C(SCCNC(C)=O)CC12` (single isomer, unassigned) [Trityl PS-5]: in data set [7] (setting [9]), the “Solubility in benzene, ethyl acetate, chloroform, methanol, ethanol, acetone, DMF and DMSO” value is recorded as “Highly soluble”; the “Solubility in water, n-hexane and petroleum ether” value is “Substantially insoluble”. In data set [7] (general description), the “Solubility in benzene, ethyl acetate, chloroform, acetone and dimethyl sulfoxide” value is on record as “soluble”; the “Solubility in water, hexane and petroleum ether” value is given as “substantially insoluble”. In addition, the Specific activity in data set [8] is 10,800 CCU/mg.

These data come from US4318916A, “Antibiotic PS-5 and derivatives having β-lactamase inhibitory activity and production thereof” (Sanraku-Ocean Co., Ltd., priority 1977, dated 1982).
